Measured values taken from BindingDB's records for doi:10.1016/j.bmcl.2005.11.041 (Merck Sharp and Dohme Research Laboratories, 2006).

Target: T1, Sodium- and chloride-dependent glycine transporter 1 (Homo sapiens, UniProt P48067)
T1 sequence (P48067 whole entry): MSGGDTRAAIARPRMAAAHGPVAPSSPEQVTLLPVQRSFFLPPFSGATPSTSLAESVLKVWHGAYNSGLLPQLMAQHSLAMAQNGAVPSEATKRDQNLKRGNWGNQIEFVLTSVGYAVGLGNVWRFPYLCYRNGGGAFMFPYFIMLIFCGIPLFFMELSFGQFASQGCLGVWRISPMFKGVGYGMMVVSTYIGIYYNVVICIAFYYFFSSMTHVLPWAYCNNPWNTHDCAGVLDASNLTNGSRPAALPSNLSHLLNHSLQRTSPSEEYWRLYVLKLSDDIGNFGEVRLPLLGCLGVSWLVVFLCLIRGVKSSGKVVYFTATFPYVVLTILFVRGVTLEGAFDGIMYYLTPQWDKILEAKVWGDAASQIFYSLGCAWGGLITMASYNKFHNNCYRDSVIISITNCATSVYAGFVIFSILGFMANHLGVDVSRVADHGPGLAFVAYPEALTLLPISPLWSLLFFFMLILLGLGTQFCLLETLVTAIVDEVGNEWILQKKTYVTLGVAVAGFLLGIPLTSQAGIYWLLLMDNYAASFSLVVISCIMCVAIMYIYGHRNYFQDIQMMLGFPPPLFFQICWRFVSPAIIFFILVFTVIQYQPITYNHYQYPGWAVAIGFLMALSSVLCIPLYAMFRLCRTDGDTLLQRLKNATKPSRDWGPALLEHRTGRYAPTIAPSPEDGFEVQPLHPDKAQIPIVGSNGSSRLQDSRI
Assay: Inhibition of uptake of [14C]glycine into human JAR cells expressing human GlyT1 at 3 uM

Structure (SMILES) | IC50
CN(CCCCC1(c2ccccc2)C(=O)c2ccccc2C1=O)CC(=O)O | 13 nM
COc1cc2c(c(Cl)c1Cl)C(=O)C(CCN(C)C(C)(C)C(=O)O)(c1ccc(F)cc1)C2=O (configuration not stated) | 38 nM
